Tested on: BT474 xenograft tumors
Type: in vivo, athymic Nu/J nude mice
Conditions: without topotecan administration; tumor burden and excised tumor weight
Protocol: FIG. 5. CUL4B inactivation sensitized BT474 xenograft tumors to topotecan. Stable TGL-BT474 cells (BT474 cells stably expressing GFP-luciferase reporter) were established by retroviral transduction and FACS sorting. The resulting TGL-BT474 cells were infected with recombinant lentiviruses expressing non-targeting shCtrl, shCUL4A or shCUL4B, followed by selection of infected cells with 4 μg/ml puromycine for one week. A) Knockdown of endogenous CUL4A and 4B were verified by immunoblotting. B, C) 1×10^7 of control, CUL4A^k/d, or CUL4B^k/d TGL-BT474 cells were injected subcutaneously in the right flank of each athymic Nu/J nude mice, treated (i.p.) with toptoecan at a dose of 5 mg/g on every 4th day, and tumor burden was measure by bioluminescent imaging. Statistical significance in tumor burden between control and CUL4A^k/d or CUL4B^k/d xenograph are assessed by a two-tailed unpaired student t-test (***: p<0.001). D) Growth rate of control, CUL4A^k/d and CUL4B^k/d BT474 cells in vitro. The same number of control, CUL4A^k/d and CUL4B^k/d BT474 cells were seeded to 96-well plates and cell proliferation was measured using the XTT Cell Proliferation Assay Kit. The data represent the mean value of fold change of cells. Bars indicate the S.E. of six independent experiments. Statistical significance in cellular rate between control cells and CUL4A^k/d or CUL4B^k/d cells are assessed by student's t-test. E-F) Growth rate of control, CUL4A^k/d and CUL4B^k/d TGL-BT474 xenograft in vivo. 1×10^7 of control, CUL4A^k/d or CUL4B^k/d TGL-BT474 cells were injected subcutaneously in the right flank of each mouse of athymic Nu/J nude mice, and tumor burden was measured by bioluminescent imaging (E). On the 22nd day, tumors were collected, and the weight of exercised tumors was measured after mice were sacrificed (F).
The effect of CUL4B knockdown on an organism's response to CPT treatment was tested in vivo by examining the sensitivity of BT474-CUL4B^k/d, BT474-CUL4A^k/d and control BT474 xenograft tumors to topotecan treatment. Topotecan, (S)-10-[(dimethylamino)methyl]-4-ethyl-4,9-dihydroxy-1H-pyrano[3′,4′:6,7]indolizino[1,2-b]quinoline-3,14(4H,12H)-dione monohydrochloride, is an FDA-approved Top1-directed chemotherapy for the treatment of ovarian, cervical and small cell lung cancer, under the trade name Hycamtin™. Nude mice bearing BT474 xenografts on dorsal skin were treated with topotecan every four (4) days for a period of 44 days. Prior to topotecan administration, the size of the xenograft tumors were identical (FIG. 5). Topotecan was then administered via intraperitoneal injection, and tumor mass was monitors by bioluminescent imaging in four day intervals. […] To rule out the possibility that the growth rate of xenografts were altered during the CUL4B inactivation process (treatment with shRNA) the tumor mass of the three xenograft groups were measured in the absence of topotecan treatment and the weight of the exercised xenograft tumors were analyzed.
Six week old Female athymic Nu/J nude mice were purchased from Jackson Labs. Mice were housed in laminar air-flow cabinets under specific pathogen-free conditions. Nude mice were inoculated with 0.36 mg 60-day-release 17-b-estradiol pellets (Innovative Research) 24 to 48 hours before implantation of BT-474 cells. 1×10^7 BT-474 cells in 50 ul DMEM medium and 300 ul diluted BD Matrigel™ Basement Membrane Matrix (BD Bioscience, Matrix: PBS is 2:1) were injected subcutaneously in the right flank of each mouse. Tumors were detected once every four days by an IVIS Imaging System (Caliper Life Sciences). When tumors were available to be detected, mice were initially treated with topotecan. Topotecan was administered intraperitoneally on every fourth day from the initiation of therapy at doses of 5 mg/g.
The IVIS Imaging System (Caliper life sciences) was used for bioluminescent image acquisition and analysis. […]

shCUL4B: lentiviral shRNA CUL4B sequence purchased from Sigma Aldrich, reduces CUL4B expression (CCGGGCAGAATTTAAAGAGGGTAAACTCGAGTTTACCCTCTTTAAATTCTGCTTTTT)
Growth rate of xenografts vs control: no significant difference

Source: patent US10106853B2, “CUL4B as predictive biomarker for cancer treatment” (CORNELL UNIVERSITY, priority 2012, dated 2018)
